Measured values from patent US20130317055A1, “NEURONAL NICOTINIC AGONIST AND METHODS OF USE” (ABBVIE INC., priority 2012, published 2013).

Tests used:
Type in all cases: in vivo, human
[1] = system: clinically stable subjects with schizophrenia; assay: Clinical Study A: CANTAB cognition battery; conditions: 10 mg and 25 mg
Text: A Phase 2a proof-of-concept (POC) study in clinically stable subjects with schizophrenia who were clinically stable and received stable doses of atypical antipsychotic therapy. The study was a Phase 2, multi-center, randomized, double-blind, placebo-controlled, parallel group study designed to evaluate the safety and efficacy of doses of (4s)-4-(5-phenyl-1,3,4-thiadiazol-2-yloxy)-1-azatricyclo[3.3.1.1^3,7]decane (Compound A) in clinically stable male and female subjects (ages 20 to 55, inclusive) with a Diagnostic and Statistical Manual of Mental Disorders Fourth Edition, Text Revision (DSM-IV-TR) diagnosis of schizophrenia. […] The criteria for clinical stability was determined by a combination of retrospective data (over the 4 months prior to the start of Screening, which will be supported by clinical records, patient, identified responsible contact person, and physician interviews), and prospective data assessed during the Prospective Stabilization Period of 28 to 42 days duration. […]
The primary endpoint was the MCCB composite score, and the primary endpoint analysis was the change on the MCCB composite score from baseline to endpoint versus placebo. Other secondary measures included the MCCB domains, the NSA-16, the CANTAB cognition battery (measured at different time points from the MCCB), and the UPSA-2. […]

[2] = system: clinically stable subjects with schizophrenia; assay: Clinical Study A: UCSD Performance-Based Skills Assessment-2 (UPSA-2); conditions: for UPSA-2 Total Score: Difference from Placebo LS Mean (SE) of Difference / UPSA-2 Total Score: LS Mean (SE) of Change: Baseline to Final Evaluation, ANCOVA; for UPSA-2 Total Score: Observed Mean (SD) Final: Final Evaluation
Text: (§1) A Phase 2a proof-of-concept (POC) study in clinically stable subjects with schizophrenia who were clinically stable and received stable doses of atypical antipsychotic therapy. The study was a Phase 2, multi-center, randomized, double-blind, placebo-controlled, parallel group study designed to evaluate the safety and efficacy of doses of (4s)-4-(5-phenyl-1,3,4-thiadiazol-2-yloxy)-1-azatricyclo[3.3.1.1^3,7]decane (Compound A) in clinically stable male and female subjects (ages 20 to 55, inclusive) with a Diagnostic and Statistical Manual of Mental Disorders Fourth Edition, Text Revision (DSM-IV-TR) diagnosis of schizophrenia. Psychiatric diagnoses were confirmed using the Mini-International Neuropsychiatric Interview (MINI) version 6.0.0. The criteria for clinical stability was determined by a combination of retrospective data (over the 4 months prior to the start of Screening, which will be supported by clinical records, patient, identified responsible contact person, and physician interviews), and prospective data assessed during the Prospective Stabilization Period of 28 to 42 days duration.
(§2) The study was a Phase 2, multi-center, randomized, double-blind, placebo-controlled, parallel group study designed to evaluate the safety and efficacy of doses of (4s)-4-(5-phenyl-1,3,4-thiadiazol-2-yloxy)-1-azatrieyclo[3.3.1.1^3,7]decane, which is also recognized as Compound A, in treating cognitive deficits in subjects with schizophrenia who were clinically stable and receiving one or two atypical antipsychotic medications. Study drug was administered orally.
(§3) The study consisted of a screening period of at least 28 and up to 42 days, a 84-day outpatient treatment period, a 14-day post-treatment period, and a post-treatment follow-up period. The screening period consisted of three visits: Screening Visit 1, Screening Visit 2, and Day −1. Upon completion of Day −1 procedures, eligible subjects were randomized through an Interactive Voice Response/Interactive Web-Based (IVR/IWB) system. Subjects were randomized in an equal ratio to one of three treatment groups (placebo, 10 mg Compound A, or 25 mg Compound A).
(§4) Subjects were randomized in a 1:1:1 ratio with placebo, 10 mg QD Compound A, of 25 mg Compound A. Each subject was instructed to take study drug once-daily in the morning for 12 weeks. Each daily dose was preferably taken with food. The subject and investigator were blinded to the treatment assignment throughout the study. The treatment assignments for the study subjects are shown below in Table 1.
The primary endpoint was the MCCB composite score, and the primary endpoint analysis was the change on the MCCB composite score from baseline to endpoint versus placebo. Other secondary measures included the MCCB domains, the NSA-16, the CANTAB cognition battery (measured at different time points from the MCCB), and the UPSA-2. The Positive and Negative Syndrome Scale (PANSS) was included to document stability in schizophrenia symptomatology.
The UCSD Performance-Based Skills Assesstnent-2 (UPSA-2) is a role-play test designed for subjects with schizophrenia to evaluate cognitive functional capacity in six selected domains of basic living skills. These areas include Organization/Planning Financial Skills, Communication, Transportation, Household Management, and Medication Management. […] Scores were obtained for each subtest, and the total score was the sum of these subtests. […] The UPSA-2 required an average of 30 minutes to administer. The UPSA-2 was administered in on Days 14, 28, 56, 84 and 98.

[3] = system: clinically stable subjects with schizophrenia; assay: Clinical Study A: disposition of subjects, discontinuations and tolerability
Text: as §1, §2, §3, §4
Subjects completed 2 visits during the screening period. Study site personnel contacted each subject by telephone on Day 21, 35, and 70 of the 84-day treatment period to discuss study drug compliance, antipsychotic medication compliance, concomitant medication use, substance use, and any adverse events.
A total of 207 subjects were randomized.

[4] = system: clinically stable subjects with schizophrenia; assay: Clinical Study A (Phase 2a, placebo-controlled): MATRICS Consensus Cognitive Battery (MCCB); conditions: Phase 2a study; printed indication AD

SMILES: c1ccc(-c2nnc(O[C@@H]3C4CC5C[C@H]3C[N@](C5)C4)s2)cc1 [Compound A, (4s)-4-(5-phenyl-1,3,4-thiadiazol-2-yloxy)-1-azatricyclo[3.3.1.1^3,7]decane]
- CANTAB battery results relative to MCCB results [1]: consistent
- UPSA-2 Total Score: Difference from Placebo LS Mean (SE) of Difference ([2]; 10 mg QD): 0.51 (2.15)
- UPSA-2 Total Score: LS Mean (SE) of Change ([2]; 10 mg QD): 2.78 (1.52)
- UPSA-2 Total Score: Observed Mean (SD) Final ([2]; 10 mg QD): 87.98 (20.36)
- UPSA-2 Total Score: Difference from Placebo LS Mean (SE) of Difference ([2]; 25 mg QD): 0.63 (2.34)
- UPSA-2 Total Score: LS Mean (SE) of Change ([2]; 25 mg QD): 2.89 (1.70)
- UPSA-2 Total Score: Observed Mean (SD) Final ([2]; 25 mg QD): 94.29 (15.85)
- UPSA-2 composite score: significance versus placebo ([2]; either dose group (10 mg, 25 mg)): No significance
- Discontinuation, primary reason Adverse event, % of treated subjects ([3]; 10 mg QD): (5.8) %
- Discontinuation, primary reason Adverse event, % of treated subjects ([3]; 25 mg QD): (4.5) %
- Discontinuation, primary reason Adverse event, % of treated subjects ([3]; Compound A Overall): (5.1) %
- Tolerability ([3]; human patients with schizophrenia, summary statement): generally well tolerated
- Tolerability ([3]; subjects with schizophrenia, doses up to 25 mg QD, including 10 mg QD and 25 mg QD): well tolerated
- Signal for efficacy in symptomatic treatment [4]: demonstrated a signal for efficacy
